Data taken from ChEMBL document CHEMBL2169865, “Selective class I phosphoinositide 3-kinase inhibitors: optimization of a series of pyridyltriazines leading to the identification of a clinical candidate, AMG 511” (J Med Chem, 2012).

What was measured:
in vitro [1] = details: human, liver microsomes
in vitro [2] = details: rat, liver microsomes
in vivo [3] = details: Sprague-Dawley, rat, iv, 1 mg/kg
in vivo [4] = details: Sprague-Dawley, rat, po, 2 mg/kg
in vivo [5] = details: Sprague-Dawley, rat, iv, 1 mg/kg; remark: listed apart in the source
in vivo [6] = details: Sprague-Dawley, rat, iv, 1 mg/kg; remark: listed apart in the source
in vivo [7] = details: Sprague-Dawley, rat, plasma, po, 2 mg/kg
Hepatocyte [8] = details: rat, hepatocytes, 4 h, 3 µM
Hepatocyte [9] = details: rat, hepatocytes, 4 h, 3 µM; remark: listed apart in the source

microsomal CLint at 0.5 h, 1 µM (in vitro [1]) | microsomal CLint at 0.5 h, 1 µM (in vitro [2]) | Vd (in vivo [3]) | bioavailability (in vivo [4]) | MRT (in vivo [5]) | clearance (in vivo [6]) | AUC (in vivo [7]) | Drug metabolism (Hepatocyte [8]) | Drug metabolism (Hepatocyte [9]) | SMILES
29 µL/min/mg | 120 µL/min/mg | – | – | – | – | – | – | – | COc1ncc(Nc2ncc(CN3CCN(S(C)(=O)=O)C[C@H]3C)cc2-c2nc(C)nc(N)n2)cc1F
41 µL/min/mg | 54 µL/min/mg | 3.2 L/kg | 60% | 3.2 h | 16.7 mL/min/kg | 2.3 µM·h | – | – | COc1ncc(Nc2ncc(CN3CCN(S(C)(=O)=O)C[C@@H]3C)cc2-c2nc(C)nc(N)n2)cc1F
23 µL/min/mg | 17 µL/min/mg | – | – | – | – | – | – | – | COc1ncc(Nc2ncc([C@@H](N3CCN(S(C)(=O)=O)CC3)C(F)(F)F)cc2-c2nc(C)nc(N)n2)cc1F
25 µL/min/mg | 22 µL/min/mg | – | – | – | – | – | – | – | COc1ncc(Nc2ncc([C@H](N3CCN(S(C)(=O)=O)CC3)C(F)(F)F)cc2-c2nc(C)nc(N)n2)cc1F
64 µL/min/mg | 113 µL/min/mg | – | – | – | – | – | – | – | COc1ncc(Nc2ncc([C@@H](C)N3CCN(S(C)(=O)=O)C[C@H]3C)cc2-c2nc(C)nc(N)n2)cc1F
54 µL/min/mg | 174 µL/min/mg | – | – | – | – | – | – | – | COc1ncc(Nc2ncc([C@H](C)N3CCN(S(C)(=O)=O)C[C@H]3C)cc2-c2nc(C)nc(N)n2)cc1F
67 µL/min/mg | 69 µL/min/mg | 4 L/kg | 49% | 3.1 h | 21.7 mL/min/kg | 1.4 µM·h | – | – | COc1ncc(Nc2ncc([C@@H](C)N3CCN(S(C)(=O)=O)C[C@@H]3C)cc2-c2nc(C)nc(N)n2)cc1F
80 µL/min/mg | 128 µL/min/mg | – | – | – | – | – | – | – | COc1ncc(Nc2ncc([C@H](C)N3CCN(S(C)(=O)=O)C[C@@H]3C)cc2-c2nc(C)nc(N)n2)cc1F
81 µL/min/mg | 58 µL/min/mg | 3.5 L/kg | 24% | 4.9 h | 11.7 mL/min/kg | 1.3 µM·h | – | – | COc1ncc(Nc2ncc(C(C)(C)N3CCN(S(C)(=O)=O)CC3)cc2-c2nc(C)nc(N)n2)cc1F
– | < 14 µL/min/mg | – | – | – | – | – | – | – | Cc1nc(N)nc(-c2cc(CN3CCN(S(C)(=O)=O)CC3)cnc2Nc2ccc(=O)[nH]c2)n1
< 14 µL/min/mg | 24 µL/min/mg | – | – | – | – | – | – | – | Cc1nc(N)nc(-c2cc(CN3CCN(S(C)(=O)=O)CC3)cnc2Nc2ccc(Cl)nc2)n1
< 14 µL/min/mg | 22 µL/min/mg | – | – | – | – | – | – | – | Cc1ccc(Nc2ncc(CN3CCN(S(C)(=O)=O)CC3)cc2-c2nc(C)nc(N)n2)cn1
< 14 µL/min/mg | 22 µL/min/mg | – | – | – | – | – | – | – | Cc1nc(N)nc(-c2cc(CN3CCN(S(C)(=O)=O)CC3)cnc2Nc2ccc(C(F)(F)F)nc2)n1
14 µL/min/mg | 14 µL/min/mg | – | – | – | – | – | – | – | COc1ncc(Nc2ncc(CN3CCN(S(C)(=O)=O)CC3)cc2-c2nc(C)nc(N)n2)cn1
< 14 µL/min/mg | 30 µL/min/mg | 3.3 L/kg | 45% | 1.7 h | 33.3 mL/min/kg | 0.95 µM·h | Not Active | Active | COc1ncc(Nc2ncc(CN3CCN(S(C)(=O)=O)CC3)cc2-c2nc(C)nc(N)n2)cc1F
< 14 µL/min/mg | 30 µL/min/mg | – | – | – | – | – | – | – | Cc1nc(N)nc(-c2cc(CN3CCN(S(C)(=O)=O)CC3)cnc2Nc2cncc(F)c2)n1
14 µL/min/mg | 29 µL/min/mg | – | – | – | – | – | – | – | COc1cncc(Nc2ncc(CN3CCN(S(C)(=O)=O)CC3)cc2-c2nc(C)nc(N)n2)c1
